According to the supplement of paper PMC8617591:

Tests used:
[1] = system: Mycobacterium tuberculosis Erdman (autoluminescent); experiment: AUC25, normalised area under dose response up to IC25 (fraction (0-1)); higher = more potent at low dose
Experimental: (§1)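 DiaMOND dose responses (10 doses, 1.5- or 2-fold spacing, equipotent around IC90) of autoluminescent M. tuberculosis Erdman in 8 in vitro models. Read-out is OD600, or luminescence for the intracellular (J774) and dormancy models, background-subtracted and normalised to untreated wells. A 3-parameter Hill fit gives Einf and AUC25 (area to IC25 normalised by IC25); GRinf comes from a Hill fit of the Hafner normalised growth rate. Biological replicates passing QC are averaged. Single drugs only.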

[2] = system: Mycobacterium tuberculosis Erdman (autoluminescent); experiment: Einf, fitted maximum growth inhibition (fraction); higher = stronger maximal inhibition
Experimental: as §1

[3] = system: Mycobacterium tuberculosis Erdman (autoluminescent); experiment: GRinf, maximum normalised growth rate inhibition (unitless (-1 to 1)); higher = less effect (negative = killing)
Experimental: as §1

[4] = system: Mycobacterium tuberculosis Erdman (autoluminescent); experiment: FIC90 (Loewe) at 90% inhibition (log2); higher = more antagonistic
Experimental: (§2)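 DiaMOND equipotent two-drug combination dose responses against autoluminescent M. tuberculosis Erdman in 8 in vitro models. Read-out is OD600, or luminescence for the intracellular and dormancy models, normalised to untreated wells. Hill-fit Einf, AUC25 and GRinf are potency metrics; FIC50 and FIC90 are Loewe-additivity fractional inhibitory concentrations, given as log2 (negative = synergy). Replicates are averaged.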

[5] = system: Mycobacterium tuberculosis Erdman (autoluminescent); experiment: GRinf, maximum normalised growth rate inhibition (unitless (-1 to 1)); higher = less effect (negative = killing); remark: listed apart in the source
Experimental: as §2

[6] = system: Mycobacterium tuberculosis Erdman (autoluminescent); experiment: FIC50 (Loewe) at 50% inhibition (log2); higher = more antagonistic
Experimental: as §2

[7] = system: Mycobacterium tuberculosis Erdman (autoluminescent); experiment: Einf, fitted maximum growth inhibition of combination (fraction); higher = stronger maximal inhibition
Experimental: as §2

[8] = system: Mycobacterium tuberculosis Erdman (autoluminescent); experiment: AUC25, normalised area under dose response up to IC25 (fraction (0-1)); higher = more potent at low dose; remark: listed apart in the source
Experimental: as §2

CO[C@H]1/C=C/O[C@@]2(C)Oc3c(C)c(O)c4c(O)c(c(/C=N/N5CCN(C6CCCC6)CC5)c(O)c4c3C2=O)NC(=O)/C(C)=C\C=C\[C@H](C)[C@H](O)[C@@H](C)[C@@H](O)[C@@H](C)[C@H](OC(C)=O)[C@@H]1C [rifapentine]
Conditions	AUC25, [1]	Einf, [2]	GRinf, [3]
in vitro model: acidic pH 5.7, time point: constant (~7 days, model-specific)	0.0584	0.831	-0.0781
in vitro model: acidic pH 5.7, time point: terminal (~4-5 doublings, model-specific)	0.0625	0.974	-0.181
in vitro model: intracellular J774, time point: constant = terminal	–	0.973	-0.197

Conditions	AUC25, [1]	Einf, [2]	GRinf, [3]
in vitro model: butyrate, time point: constant (~7 days, model-specific)	0.0929	0.891	0.117
in vitro model: butyrate, time point: terminal (~4-5 doublings, model-specific)	0.0749	0.942	0.0762
in vitro model: cholesterol 0.05 mM, time point: constant (~7 days, model-specific)	0.104	0.553	0.164
in vitro model: cholesterol 0.05 mM, time point: terminal (~4-5 doublings, model-specific)	0.065	0.861	-0.00856
in vitro model: cholesterol-high 0.2 mM, time point: constant (~7 days, model-specific)	0.0607	0.877	-0.186
in vitro model: cholesterol-high 0.2 mM, time point: terminal (~4-5 doublings, model-specific)	0.053	1	-0.735
in vitro model: dormancy (butyrate + nitrate, low O2), time point: constant (~7 days, model-specific)	0.0644	0.908	0.218
in vitro model: dormancy (butyrate + nitrate, low O2), time point: terminal (~4-5 doublings, model-specific)	0.0566	0.989	-0.11
in vitro model: standard 7H9 glycerol, time point: constant = terminal	0.0489	0.894	0.0516
in vitro model: valerate, time point: constant (~7 days, model-specific)	0.0524	0.855	0.056
in vitro model: valerate, time point: terminal (~4-5 doublings, model-specific)	0.0266	0.937	0.0374

CO[C@H]1/C=C/O[C@@]2(C)Oc3c(C)c(O)c4c(O)c(c(/C=N/N5CCN(C6CCCC6)CC5)c(O)c4c3C2=O)NC(=O)/C(C)=C\C=C\[C@H](C)[C@H](O)[C@@H](C)[C@@H](O)[C@@H](C)[C@H](OC(C)=O)[C@@H]1C [rifapentine] + CO[C@H]1/C=C/O[C@@]2(C)Oc3c(C)c(O)c4c(O)c(c(/C=N/N5CCN(C)CC5)c(O)c4c3C2=O)NC(=O)/C(C)=C\C=C\[C@H](C)[C@H](O)[C@@H](C)[C@@H](O)[C@@H](C)[C@H](OC(C)=O)[C@@H]1C [rifampicin]
Conditions	AUC25, [8]	Einf, [7]	FIC50, [6]	FIC90, [4]	GRinf, [5]
in vitro model: acidic pH 5.7, time point: constant (~7 days, model-specific)	0.0835	0.837	0.179	–	-0.028
in vitro model: acidic pH 5.7, time point: terminal (~4-5 doublings, model-specific)	0.0696	0.967	0.0519	-0.186	-0.182
in vitro model: intracellular J774, time point: constant = terminal	–	0.934	–	-0.3	-0.195

Conditions	AUC25, [8]	Einf, [7]	FIC50, [6]	FIC90, [4]	GRinf, [5]
in vitro model: butyrate, time point: constant (~7 days, model-specific)	0.101	0.887	0.0385	–	0.0983
in vitro model: butyrate, time point: terminal (~4-5 doublings, model-specific)	0.0929	0.958	-0.077	0.00202	0.0599
in vitro model: cholesterol 0.05 mM, time point: constant (~7 days, model-specific)	0.125	0.57	-0.0632	–	0.181
in vitro model: cholesterol 0.05 mM, time point: terminal (~4-5 doublings, model-specific)	0.085	0.883	-0.246	0.16	-0.0494
in vitro model: cholesterol-high 0.2 mM, time point: constant (~7 days, model-specific)	0.0915	0.921	-0.073	0.413	-0.231
in vitro model: cholesterol-high 0.2 mM, time point: terminal (~4-5 doublings, model-specific)	0.0669	0.999	0.0935	-0.0799	-0.64
in vitro model: dormancy (butyrate + nitrate, low O2), time point: constant (~7 days, model-specific)	0.062	0.902	0.0837	-0.356	0.162
in vitro model: dormancy (butyrate + nitrate, low O2), time point: terminal (~4-5 doublings, model-specific)	0.0354	0.979	0.0345	-0.0772	-0.0822
in vitro model: standard 7H9 glycerol, time point: constant = terminal	0.0721	0.907	0.198	0.54	0.101
in vitro model: valerate, time point: constant (~7 days, model-specific)	0.0488	0.815	0.231	–	0.136
in vitro model: valerate, time point: terminal (~4-5 doublings, model-specific)	0.0288	0.921	-0.0221	-0.019	0.0885
